Test results: PubChem BioAssay AID330 (DTP/NCI, 2004)
Where “and” joins values, the source holds several entries; their conditions need not be identical. Equal entries are not always repeated. Toxic doses and inconclusive results are not listed. The calls were made as follows: active = survival T/C of 150% or more; inactive = T/C below 125% in these data.

Tested on: P388 leukemia ip, CD2F1 mice, survival T/C
Assay: NCI In Vivo Anticancer Drug Screen. Data for tumor model P388 Leukemia (intraperitoneal) in CD2F1 (CDF1) mice
Settings: endpoint: median survival time, higher = longer survival
In short: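 Mice carrying the transplanted tumor received test compound or vehicle. Survival was recorded in each group, and the value is the treated-group measurement divided by that of the vehicle-treated control group.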

[1] = dose: 50.0 mg/kg/injection, schedule: Q01DX009 (ip), vehicle: saline
[2] = dose: 100.0 mg/kg/injection, schedule: Q01DX009 (ip), vehicle: saline
[3] = dose: 200.0 mg/kg/injection, schedule: Q01DX009 (ip), vehicle: saline
[4] = dose: 12.5 mg/kg/injection, schedule: Q01DX009 (ip), vehicle: saline
[5] = dose: 25.0 mg/kg/injection, schedule: Q01DX009 (ip), vehicle: saline
[6] = dose: 50.0 mg/kg/injection, schedule: Q01DX009 (ip), vehicle: suspension in saline
[7] = dose: 100.0 mg/kg/injection, schedule: Q01DX009 (ip), vehicle: suspension in saline
[8] = dose: 200.0 mg/kg/injection, schedule: Q01DX009 (ip), vehicle: suspension in saline
[9] = dose: 60.0 mg/kg/injection, schedule: Q01DX005 (ip), vehicle: Klucel (hydroxypropylcellulose) (HPC)
[10] = dose: 50.0 mg/kg/injection, schedule: Q01DX005 (ip), vehicle: Klucel (hydroxypropylcellulose) (HPC)
[11] = dose: 100.0 mg/kg/injection, schedule: Q01DX005 (ip), vehicle: Klucel (hydroxypropylcellulose) (HPC)
[12] = dose: 200.0 mg/kg/injection, schedule: Q01DX005 (ip), vehicle: Klucel (hydroxypropylcellulose) (HPC)
[13] = dose: 400.0 mg/kg/injection, schedule: Q01DX005 (ip), vehicle: Klucel (hydroxypropylcellulose) (HPC)

Measured: T/C

O=c1c(Cl)c(Cl)c(=O)c2sc3cc(Cl)ccc3[nH]c1=2
inactive: [1] 98 % of control | [2] 102 % of control | [3] 101 % of control

C=C1C(=O)O[C@H]2[C@H]1[C@H](OC(=O)/C(C)=C\C)CC(=C)[C@@H]1[C@H](O)[C@H]3O[C@@]3(C)[C@@]12O
inactive: dose: 6.25 mg/kg/injection, schedule: Q01DX009 (ip), vehicle: saline 102 % of control | [4] 106 % of control and 111 % of control | [5] 112 % of control and 113 % of control | [1] 121 % of control | [2] 109 % of control

CC1SC(C)C1=O (stereo unspecified)
inactive: dose: 60.0 mg/kg/injection, schedule: Q01DX005 (ip), vehicle: saline 109 % of control | dose: 120.0 mg/kg/injection, schedule: Q01DX005 (ip), vehicle: saline 107 % of control | dose: 240.0 mg/kg/injection, schedule: Q01DX005 (ip), vehicle: saline 100 % of control

CC(=O)c1c(O)ccc2nc3ccccc3nc12
inactive: [6] 105 % of control | [7] 111 % of control | [8] 93 % of control

O=C(Nc1cc(Cl)ccc1Cl)Oc1ccc(Cl)cc1C(=O)c1ccccc1
inactive: [1] 102 % of control | [2] 97 % of control | [3] 89 % of control

CN1/C(=C/C2=C([O-])C(=C/C3=[N+](C)c4ccccc4C3(C)C)/C2=O)C(C)(C)c2ccccc21
inactive: [9] 91 % of control | dose: 120.0 mg/kg/injection, schedule: Q01DX005 (ip), vehicle: Klucel (hydroxypropylcellulose) (HPC) 87 % of control

CCCCC(=O)NN(Cn1c(=S)sc2ccccc21)Cn1c(=S)sc2ccccc21
inactive: dose: 1.56 mg/kg/injection, schedule: Q01DX009 (ip), vehicle: Klucel (hydroxypropylcellulose) (HPC) 88 % of control | dose: 3.12 mg/kg/injection, schedule: Q01DX009 (ip), vehicle: Klucel (hydroxypropylcellulose) (HPC) 106 % of control and 88 % of control | dose: 6.25 mg/kg/injection, schedule: Q01DX009 (ip), vehicle: Klucel (hydroxypropylcellulose) (HPC) 100 % of control and 86 % of control and 93 % of control | dose: 12.5 mg/kg/injection, schedule: Q01DX009 (ip), vehicle: Klucel (hydroxypropylcellulose) (HPC) 90 % of control and 97 % of control | dose: 50.0 mg/kg/injection, schedule: Q01DX009 (ip), vehicle: Klucel (hydroxypropylcellulose) (HPC) 88 % of control and 91 % of control

Cc1ccc(NC(=O)Oc2cc(C)c(Br)c(C)c2)cc1[N+](=O)[O-]
inactive: [4] 95 % of control | [5] 97 % of control | dose: 50.0 mg/kg/injection, schedule: Q01DX009 (ip), vehicle: saline + alcohol 98 % of control | [1] 101 % of control | dose: 200.0 mg/kg/injection, schedule: Q01DX009 (ip), vehicle: saline + alcohol 100 % of control

Cn1c(=O)sc2ccccc21
inactive: dose: 25.0 mg/kg/injection, schedule: Q04DX002 (ip), vehicle: saline with Tween-80 102 % of control | dose: 50.0 mg/kg/injection, schedule: Q04DX002 (ip), vehicle: saline with Tween-80 104 % of control | dose: 100.0 mg/kg/injection, schedule: Q04DX002 (ip), vehicle: saline with Tween-80 110 % of control

CCOC(=O)c1c[nH]c2c(ccc3cccnc32)c1=O
inactive: dose: 15.0 mg/kg/injection, schedule: Q01DX005 (ip), vehicle: Klucel (hydroxypropylcellulose) (HPC) 99 % of control | dose: 30.0 mg/kg/injection, schedule: Q01DX005 (ip), vehicle: Klucel (hydroxypropylcellulose) (HPC) 99 % of control | [1] 99 % of control | [9] 99 % of control and 97 % of control | [2] 117 % of control | [3] 99 % of control

COC(=O)OC(C#N)c1cccc([N+](=O)[O-])c1 (stereo unspecified)
inactive: dose: 25.0 mg/kg/injection, schedule: Q01DX009 (ip), vehicle: suspension in saline 101 % of control | [6] 98 % of control | [2] 94 % of control | [7] 104 % of control

CNC(=O)CCCCCNC(C)=O
inactive: [10] 98 % of control | [11] 95 % of control | [12] 90 % of control | [13] 97 % of control

COc1ccc(CCN2CC(=O)N3CSCC3C2=O)cc1OC (stereo unspecified)
inactive: dose: 60.0 mg/kg/injection, schedule: Q01DX005 (ip), vehicle: saline with Tween-80 100 % of control | dose: 120.0 mg/kg/injection, schedule: Q01DX005 (ip), vehicle: saline with Tween-80 95 % of control | dose: 240.0 mg/kg/injection, schedule: Q01DX005 (ip), vehicle: saline with Tween-80 95 % of control

COc1nc(N)c2c3c([nH]c2c1C#N)C(C)(C)c1ccccc1N3C
inactive: dose: 50.0 mg/kg/injection, schedule: Q01DX009 (ip), vehicle: saline with Tween-80 96 % of control | dose: 100.0 mg/kg/injection, schedule: Q01DX009 (ip), vehicle: saline with Tween-80 100 % of control | dose: 200.0 mg/kg/injection, schedule: Q01DX009 (ip), vehicle: saline with Tween-80 94 % of control

N=C(N)C1CC1
inactive: [4] 100 % of control | [5] 100 % of control | [1] 102 % of control

O=C1OCC2=C1CN1CCc3cc4c(cc3C1C2)OCO4 (stereo unspecified)
inactive: dose: 0.63 mg/kg/injection, schedule: Q01DX009 (ip), vehicle: distilled water + Tween-80 94 % of control | dose: 1.25 mg/kg/injection, schedule: Q01DX009 (ip), vehicle: distilled water + Tween-80 103 % of control | dose: 2.5 mg/kg/injection, schedule: Q01DX009 (ip), vehicle: distilled water + Tween-80 112 % of control | dose: 5.0 mg/kg/injection, schedule: Q01DX009 (ip), vehicle: distilled water + Tween-80 103 % of control | dose: 10.0 mg/kg/injection, schedule: Q01DX009 (ip), vehicle: distilled water + Tween-80 103 % of control | dose: 20.0 mg/kg/injection, schedule: Q01DX009 (ip), vehicle: distilled water + Tween-80 94 % of control

CC1CCC(n2cnc3c(Cl)ncnc32)O1 (stereo unspecified)
inactive: dose: 25.0 mg/kg/injection, schedule: Q01DX005 (ip), vehicle: Klucel (hydroxypropylcellulose) (HPC) 97 % of control | [10] 103 % of control | [11] 110 % of control | [12] 112 % of control | [13] 114 % of control

CCN(CC)CCCC(C)Nc1c(C)cnc2cc(Cl)c(C)cc12 (stereo unspecified)
inactive: dose: 50.0 mg/kg/injection, schedule: Q01DX005 (ip), vehicle: saline 103 % of control | dose: 100.0 mg/kg/injection, schedule: Q01DX005 (ip), vehicle: saline 100 % of control

CCC(C)C(NC(=O)C(Cc1c[nH]c2ccccc12)NC(=O)OC(C)(C)C)C(=O)OC (stereo unspecified)
inactive: dose: 12.5 mg/kg/injection, schedule: Q01DX009 (ip), vehicle: other 99 % of control | dose: 25.0 mg/kg/injection, schedule: Q01DX009 (ip), vehicle: other 104 % of control | dose: 50.0 mg/kg/injection, schedule: Q01DX009 (ip), vehicle: other 104 % of control | dose: 100.0 mg/kg/injection, schedule: Q01DX009 (ip), vehicle: other 106 % of control | dose: 200.0 mg/kg/injection, schedule: Q01DX009 (ip), vehicle: other 110 % of control

CCCCN(CCCC)CCNc1ccc(C)c2sc3ccc([N+](=O)[O-])cc3c(=O)c12
inactive: [10] 100 % of control | [11] 99 % of control | [12] 100 % of control

O=C(CN1C(=O)c2ccccc2C1=O)C(O)CN1C(=O)c2ccccc2C1=O (stereo unspecified)
inactive: dose: 50.0 mg/kg/injection, schedule: Q01DX005 (ip), vehicle: saline with Tween-80 94 % of control | dose: 100.0 mg/kg/injection, schedule: Q01DX005 (ip), vehicle: saline with Tween-80 94 % of control | dose: 200.0 mg/kg/injection, schedule: Q01DX005 (ip), vehicle: saline with Tween-80 100 % of control

CN(C)CCCNC(=S)C(=S)NCCCN(C)C
inactive: [10] 97 % of control | [11] 105 % of control

CC(C)(C)C1C/C(=C2\COC(=O)C2=O)NN1c1ccccc1 (stereo unspecified)
inactive: [1] 92 % of control | [2] 91 % of control | [3] 91 % of control

OCCOCCCl
inactive: [7] 96 % of control | [8] 109 % of control | dose: 400.0 mg/kg/injection, schedule: Q01DX009 (ip), vehicle: suspension in saline 110 % of control

c1cc2c3c(c1)c1cc4c(cc1c[n+]3CCC2)OCO4
inactive: dose: 3.13 mg/kg/injection, schedule: Q01DX009 (ip), vehicle: water 110 % of control | dose: 25.0 mg/kg/injection, schedule: Q01DX009 (ip), vehicle: water 119 % of control and 120 % of control

C=C[C@@]1(C)CC(=O)[C@]2(O)[C@@]3(C)[C@@H](O)CCC(C)(C)[C@@H]3[C@H](O)[C@@H](OC(C)=O)[C@@]2(C)O1
inactive: dose: 6.25 mg/kg/injection, schedule: Q01DX005 (ip), vehicle: saline + Tween-80 + alcohol 95 % of control | dose: 12.5 mg/kg/injection, schedule: Q01DX005 (ip), vehicle: saline + Tween-80 + alcohol 102 % of control
